Results as given in patent publication US20180049996A1, “THERAPEUTIC AGENT FOR CHRONIC RESPIRATORY DISEASE AND COMPOSITION FOR INHIBITING CARDIAC FIBROSIS” (NIPPON HYPOX LABORATORIES INCORPORATED, priority 2015, published 2018).

Assays:
IL-6 = IL-6 level in BAL fluid (ELISA), COPD model; type: in vivo, C57BL/6N mice; conditions: HTHQ 10 and 20 mg/kg/day oral; tobacco smoke 10 days + LPS; compared to COPD model group
Description: (§1) 6 week old male SPF C57BL/6N mice, 20 to 25 g of body weight, were purchased from CORETEC INC. (South Korea).
(§2) The tests were conducted as follows. The mice in the COPD (chronic obstructive pulmonary disease) model group of the test groups were exposed to tobacco smoke for 1 hour per day (8 cigarettes/day) for 10 days and LPS (5 μg/50 μL/mouse) was intranasally administered to the mice on day 8 after the start of the tests. […]
(§3) The mice in the test groups were euthanized 72 hours after the LPS administration and the mice in the normal control group were euthanized on day 11 after the start of the tests by intraperitoneal injection of pentobarbital (Hanrimu pharmaceutical, South Korea) at 50 mg/kg and then the bronchi were excised. […] After preparing slide samples from 100 μL of BAL cell fluid using Cytospin (4° C., 1000 rpm×5 min), the cell numbers of inflammatory cells (neutrophil, macrophages) present in the BAL fluid were counted using a Diff-Quik stain kit.
(§4) The supernatant of the BAL fluid stored was taken out of the super-cryostat, and TNF-α and IL-6 levels were measured as the levels of pro-inflammatory cytokines in the supernatant. A quantitative ELISA kit (a product from Invitrogen) and an ELISA analyzer (a product from Molecular Devices, LLC.) were used for the measurement and the measurement wavelength was 450 nm.

TNF-α = TNF-α level in BAL fluid (ELISA), COPD model; type: in vivo, C57BL/6N mice; conditions: HTHQ 10 and 20 mg/kg/day oral; tobacco smoke 10 days + LPS; compared to COPD model group
Description: as §1, §2, §3, §4

ovalbumin-specific IgE = assay: Content of ovalbumin-specific IgE in serum, ovalbumin asthma model; type: in vivo, BALB/c female mice; conditions: HTHQ 20 and 40 mg/kg/day oral; day 25; no significant difference
Description: 6 week old BALB/c female mice were purchased and the mice were divided into 5 groups with 5 animals per group shown in Table 3 below after habituation breeding of about 2 weeks.
The test was conducted on the schedule of sensitization, causing diseases and administration of test materials shown in FIG. 12. “IP” in FIG. 12 refers to ovalbumin sensitization treatment by the intraperitoneal administration of ovalbumin/aluminum hydroxide, and “IH” refers to inhalation exposure treatment of ovalbumin, and “PO” refers to the administration of the test materials. Specifically, 200 μL of PBS (pH 7.4) emulsified by the addition of 20 μg ovalbumin and 2 mg aluminum hydroxide as an adjuvant was intraperitoneally administered to all mice in 4 groups except the normal control group (the initial sensitization, day 1 of the test). Then, after 2 weeks (day 14 of the test), the second sensitization treatment was conducted in the same way as the initial sensitization. […]
On day 25 of the test, the total contents of IgE and contents of ovalbumin-specific IgE in serums were measured using blood collected from orbital sinuses of the mice. An ELISA kit for IgE measurement (a product from BioLegend, Inc.) was used for the measurement and the contents were measured at wavelength of 450 nm using a micro plate reader (a product from Bio-Rad Laboratories, Inc.).

Compound: CCCCCCOc1cc(C)c(O)c(C)c1C [HTHQ, 2,3,5-trimethylhydroquinone-1-hexyl ether]
- IL-6 level in BAL fluid (IL-6): significantly reduced
- TNF-α level in BAL fluid (TNF-α): effectively reduced
- amount of ovalbumin-specific IgE in serum (ovalbumin-specific IgE): a declining trend was seen
